A short description of series [1]: Cell viability assay (CellTiter-Glo, 7 days), HCT116 WT. Type of series: cell-based. The settings on record: human, HCT116 WT cells, 7 days of treatment, CTG. The method, boiled down: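 Each PRMT5 inhibitor was tested as a dose response alongside tool compounds on the same plate. Incubation ran 7 days at 37 °C under 5% CO2, after which CellTiter-Glo luminescence was recorded and CC50 calculated.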
(ATP-based viability assays read luminescence as a measure of living cells.)

Series [2] can be described thus: Pharmacokinetics in cassette in male Sprague-Dawley rats for Kp measurement. Type of series: in vivo. The following applies: 1 mg/kg, intravenous. Here is the method: E.1 Test Animal: Male Sprague-Dawley Rats (225-300 g) with Indwelling Bilateral Jugular Vain Cannula (JVC/JVC) or Single Jugular Vein Cannula (JVC)
E.2 Pharmaceutical Formulation and Administration
Test compound was dissolved in the vehicle of 10% DMSO, 10% ethanol, 40% polyethylene glycol 300, and 40% propylene glycol to get 1 mg/mL test compound solution. The compound was administered by intravenous administration at a dose of 1 mL/kg. Fasting was not required.
• Anticoagulant: K2EDTA • Volume: approximately 225 μL blood at each bleed • Jugula vein via syringe and needle or another method (non-terminal samples) or exsanguination (cardiac puncture) under isoflurane (or CO2 inhalation if isoflurane is unavailable) anesthesia (terminal time points). Blood samples were collected into K2EDTA tubes • Tissue collection and processing: following the terminal blood collection, the brain and CSF were collected from each animal.

Series [3] in a line: MDR1/BCRP assay: permeability in cPgp-KO-MDCK-WT cells. It is filed as in vitro ADME. The following applies: dog, pH 7.4. The method, boiled down:
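Compounds at 1 μM were dosed apically or basolaterally on 5-day confluent cPgp-KO-MDCK monolayers, HBSS/HEPES/glucose pH 7.4 donor and receiver with 1% BSA, duplicate wells. Receiver samples at 2 h were analysed by LC-MS/MS to give A→B and B→A Papp plus % recovery; TEER confirmed integrity.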

The mark [4] stands for this setting: brain Kp = [brain]/[plasma], rat, read-out: Rat brain Kp.
Setting [5] is: brain Kpu,u = Kp * (plasma free/rat brain free), read-out: Rat brain Kpu,u.

Read-outs that look alike come from different tables or passages of the source.

Usually CC50 stands for the concentration at which the toxic effect on the cells reaches its halfway point. One may read the Papp A→B as the apparent permeability from the apical to the basolateral side of a cell layer. Low values mean poor permeation, high ones ready permeation.

In series [1], `Nc1nc2cc(F)c(C(=O)N3CCC[C@@H]4Oc5cc(C(F)(F)F)ccc5[C@@H]43)cc2n2cncc12` [Ff-104, (4-amino-7-fluoroimidazo[1,5-a]quinoxalin-8-yl)((4aS,9bS)-7-(trifluoromethyl)-3,4,4a,9b-tetrahydrobenzofuro[3,2-b]pyridin-1(2H)-yl)methanone] gave a CC50 at 7 days of 470 nM. Besides, the Kp in series [2] (setting [4]) came out at 0.39; in series [2] (setting [5]) it was 0.07.

Turning to `Nc1nc2ccc(C(=O)N3CCC[C@@H]4Oc5cc(C(F)(F)F)ccc5[C@@H]43)cc2n2cncc12` [Ff-111, (4-aminoimidazo[1,5-a]quinoxalin-8-yl)((4aS,9bS)-7-(trifluoromethyl)-3,4,4a,9b-tetrahydrobenzofuro[3,2-b]pyridin-1(2H)-yl)methanone], in series [1], the CC50 at 7 days was determined as 1100 nM. Moreover, the Papp A→B at 2 h, 1 µM in series [3] was 15.3 ×10⁻⁶ cm/s. The Kp stood at 0.4 in series [2] (setting [4]) and 0.06 in series [2] (setting [5]).

With `Nc1nc2cnc(C(=O)N3CC[C@H]4C[C@@H]3c3ccc(C(F)(F)F)c(F)c3O4)cc2n2cncc12` [Ff-684, (4-aminoimidazo[1,5-a]pyrido[3,4-e]pyrazin-8-yl)((2S,6R)-10-fluoro-9-(trifluoromethyl)-3,4-dihydro-2H-2,6-methanobenzo[b][1,5]oxazocin-5(6H)-yl)methanone], the midpoint of cytotoxicity in series [1], the CC50 at 7 days, lay at 1310 nM. The compound further had a Papp A→B at 2 h, 1 µM in series [3] of 10.7 ×10⁻⁶ cm/s.

As to `Nc1nc2cnc(C(=O)N3CCC[C@@H]4Oc5cc(C(F)(F)F)ccc5[C@@H]43)cc2n2cncc12` [Ff-110, (4-aminoimidazo[1,5-a]pyrido[3,4-e]pyrazin-8-yl)((4aS,9bS)-7-(trifluoromethyl)-3,4,4a,9b-tetrahydrobenzofuro[3,2-b]pyridin-1(2H)-yl)methanone], in series [1], the CC50 at 7 days is 516 nM. In series [3], this compound returned a Papp A→B at 2 h, 1 µM of 12.1 ×10⁻⁶ cm/s. For the same compound, the results for the Kp in series [2] (setting [4]) and in series [2] (setting [5]) were 0.48 and 0.06, respectively.

On to `Nc1nc2cnc(C(=O)N3CCC[C@@H]4Oc5cc(OC(F)(F)F)cc(F)c5[C@@H]43)cc2n2cncc12` (single isomer, unassigned) [Fg-55], for which the CC50 at 7 days in series [1] worked out at 799 nM. This compound yielded a Papp A→B at 2 h, 1 µM in series [3] of 9.5 ×10⁻⁶ cm/s. For the same compound, the Kp was determined as 0.2 in series [2] (setting [4]) and 0.05 in series [2] (setting [5]).

As to `Nc1nc2cnc(C(=O)N3CCC[C@@H]4Oc5cc(OC(F)(F)F)ccc5[C@@H]43)cc2n2cncc12` [Ff-341, (4-aminoimidazo[1,5-a]pyrido[3,4-e]pyrazin-8-yl)((4aS,9bS)-7-(trifluoromethoxy)-3,4,4a,9b-tetrahydrobenzofuro[3,2-b]pyridin-1(2H)-yl)methanone], the CC50 at 7 days in series [1] was 710 nM. The compound also yielded an apparent permeability from apical to basolateral (Papp A→B) at 2 h, 1 µM in series [3] of 10.3 ×10⁻⁶ cm/s. In addition, the Kp in series [2] (setting [4]) is 0.37; in series [2] (setting [5]) it was 0.11.

`Cc1ncn2c1c(N)nc1cnc(C(=O)N3CCC[C@@H]4Oc5cc(C(F)(F)F)ccc5[C@@H]43)cc12` [Ff-499, (4-amino-3-methylimidazo[1,5-a]pyrido[3,4-e]pyrazin-8-yl)((4aS,9bS)-7-(trifluoromethyl)-3,4,4a,9b-tetrahydrobenzofuro[3,2-b]pyridin-1(2H)-yl)methanone] returned a 50% cytotoxic concentration (CC50) at 7 days in series [1] of 897 nM. In series [3], the apparent permeability from apical to basolateral (Papp A→B) at 2 h, 1 µM worked out at 17.8 ×10⁻⁶ cm/s. For the same compound, the figures for the Kp in series [2] (setting [4]) and in series [2] (setting [5]) were 0.67 and 0.15, respectively.

`Nc1nc2cc(F)c(C(=O)N3CCO[C@@H]4Cc5cc(C(F)(F)F)ccc5[C@@H]43)cc2n2cncc12` (single isomer, unassigned) [Ff-82] displayed a 50% cytotoxic concentration (CC50) at 7 days in series [1] of 2070 nM. Further, in series [3], the Papp A→B at 2 h, 1 µM is 8.8 ×10⁻⁶ cm/s. Moreover, the Kp in series [2] (setting [4]) was 0.15; in series [2] (setting [5]) it was 0.02.

In series [1], `Nc1nc2cnc(C(=O)N3CC4(CC4)C[C@@H]4Oc5cc(C(F)(F)F)ccc5[C@@H]43)cc2n2cncc12` [Ff-648, (4-aminoimidazo[1,5-a]pyrido[3,4-e]pyrazin-8-yl)((4aS,9bS)-7-(trifluoromethyl)-4a,9b-dihydro-2H-spiro[benzofuro[3,2-b]pyridine-3,1′-cyclopropan]-1(4H)-yl)methanone] yielded a CC50 at 7 days of 650 nM. In addition, in series [3], the Papp A→B at 2 h, 1 µM is 10.9 ×10⁻⁶ cm/s.

For the compound `C[C@@H]1CN(C(=O)c2cc3c(cc2F)nc(N)c2cncn23)[C@H]2c3cc(F)c(OC(F)(F)F)cc3C[C@H]2O1` (single isomer, unassigned) [Ff-197], half-maximal cytotoxicity in series [1] (CC50 at 7 days) was put at 712 nM. This compound came in with a Papp A→B at 2 h, 1 µM in series [3] of 16 ×10⁻⁶ cm/s. The Kp in series [2] (setting [4]) was found to be 0.22; in series [2] (setting [5]) it was 0.06.

As for `Nc1nc2cnc(C(=O)N3CCC[C@@H]4Oc5c(ccc(C(F)(F)F)c5F)[C@@H]43)cc2n2cncc12` [Ff-109, (4-aminoimidazo[1,5-a]pyrido[3,4-e]pyrazin-8-yl)((4aS,9bS)-6-fluoro-7-(trifluoromethyl)-3,4,4a,9b-tetrahydrobenzofuro[3,2-b]pyridin-1(2H)-yl)methanone], in series [1], half-maximal cytotoxicity (CC50 at 7 days) was put at 1380 nM. Further, the Papp A→B at 2 h, 1 µM in series [3] was determined as 12.2 ×10⁻⁶ cm/s. The Kp came to 0.1 in series [2] (setting [4]) and 0.02 in series [2] (setting [5]).

In series [1], `Nc1nc2cnc(C(=O)N3CC[C@H]4C[C@@H]3c3ccc(C(F)(F)F)cc3O4)cc2n2cncc12` [Ff-367, (4-aminoimidazo[1,5-a]pyrido[3,4-e]pyrazin-8-yl)((2S,6R)-9-(trifluoromethyl)-3,4-dihydro-2H-2,6-methanobenzo[b][1,5]oxazocin-5(6H)-yl)methanone] yielded a CC50 at 7 days of 925 nM. In series [3], the apparent permeability from apical to basolateral (Papp A→B) at 2 h, 1 µM worked out at 13.7 ×10⁻⁶ cm/s. In series [2] (setting [4]), the Kp worked out at 0.32.

For the compound `C[C@H]1CN(C(=O)c2cc3c(cc2F)nc(N)c2cncn23)[C@H]2c3cc(F)c(C(F)F)cc3C[C@H]2O1` (single isomer, unassigned) [Ff-173], in series [1], the CC50 at 7 days was found to be 2250 nM. In addition, in series [3], the apparent permeability from apical to basolateral (Papp A→B) at 2 h, 1 µM came out at 14.3 ×10⁻⁶ cm/s. For the same compound, the values for the Kp in series [2] (setting [4]) and in series [2] (setting [5]) were 0.12 and 0.03, respectively.

Take `[2H]C1([2H])CC[C@@H]2Oc3cc(C(F)(F)F)ccc3[C@@H]2N1C(=O)c1cc2c(cn1)nc(N)c1cncn12` [Fg-60, (4-aminoimidazo[1,5-a]pyrido[3,4-e]pyrazin-8-yl)((4aS,9bS)-7-(trifluoromethyl)-3,4,4a,9b-tetrahydrobenzofuro[3,2-b]pyridin-1(2H)-yl-2,2-d2)methanone]: in series [1], half-maximal cytotoxicity (CC50 at 7 days) was put at 683 nM. Further, the Papp A→B at 2 h, 1 µM in series [3] is 7 ×10⁻⁶ cm/s.

Compound `Nc1nc2cnc(C(=O)N3CC[C@H]4C[C@@H]3c3ccc(OC(F)(F)F)cc3O4)cc2n2cncc12` [Ff-685, (4-aminoimidazo[1,5-a]pyrido[3,4-e]pyrazin-8-yl)((2S,6R)-9-(trifluoromethoxy)-3,4-dihydro-2H-2,6-methanobenzo[b][1,5]oxazocin-5(6H)-yl)methanone] showed a CC50 at 7 days in series [1] of 1130 nM. The Papp A→B at 2 h, 1 µM in series [3] stood at 11.2 ×10⁻⁶ cm/s.

Consider `Cc1ncc2c(N)nc3cnc(C(=O)N4CCC[C@@H]5Oc6cc(OC(F)(F)F)ccc6[C@@H]54)cc3n12` [Ff-340, (4-amino-1-methylimidazo[1,5-a]pyrido[3,4-e]pyrazin-8-yl)((4aS,9bS)-7-(trifluoromethoxy)-3,4,4a,9b-tetrahydrobenzofuro[3,2-b]pyridin-1(2H)-yl)methanone], for which the half-maximal cytotoxic concentration (CC50) at 7 days in series [1] stood at 2460 nM. The compound further yielded a Papp A→B at 2 h, 1 µM in series [3] of 16.3 ×10⁻⁶ cm/s. For the same compound, the values for the Kp in series [2] (setting [4]) and in series [2] (setting [5]) were 0.2 and 0.06, respectively.

Regarding `C[C@H]1CN(C(=O)c2cc3c(cc2F)nc(N)c2cncn23)[C@H]2c3ccc(C(F)(F)F)cc3C[C@H]2O1` (single isomer, unassigned) [Ff-81], the 50% cytotoxic concentration (CC50) at 7 days in series [1] stood at 1350 nM. In addition, the Papp A→B at 2 h, 1 µM in series [3] amounted to 10.5 ×10⁻⁶ cm/s. Also, the Kp amounted to 0.17 in series [2] (setting [4]) and 0.04 in series [2] (setting [5]).

For the compound `Nc1nc2cnc(C(=O)N3CC[C@H]4C[C@@H]3c3c(F)cc(C(F)(F)F)cc3O4)cc2n2cncc12` (single isomer, unassigned) [Ff-694], the 50% cytotoxic concentration (CC50) at 7 days in series [1] was determined as 723 nM. The same compound came in with a Papp A→B at 2 h, 1 µM in series [3] of 19.7 ×10⁻⁶ cm/s. Besides, in series [2] (setting [4]), the Kp worked out at 0.29.

On to `C[C@@H]1CN(C(=O)c2cc3c(cc2F)nc(N)c2cncn23)[C@H]2c3ccc(OC(F)(F)F)cc3C[C@H]2O1` (single isomer, unassigned) [Ff-183], for which half-maximal cytotoxicity in series [1] (CC50 at 7 days) was put at 853 nM. In series [3], this compound had an apparent permeability from apical to basolateral (Papp A→B) at 2 h, 1 µM of 10.3 ×10⁻⁶ cm/s. Also, the Kp in series [2] (setting [4]) was 0.41; in series [2] (setting [5]) it was 0.06.

In turn, `Nc1nc2cnc(C(=O)N3CCC[C@@H]4Oc5cc(C(F)(F)F)cc(F)c5[C@@H]43)cc2n2cncc12` (single isomer, unassigned) [Fg-53] had a half-maximal cytotoxic concentration (CC50) at 7 days in series [1] of 503 nM. Further, the Papp A→B at 2 h, 1 µM in series [3] stood at 16.6 ×10⁻⁶ cm/s. Also, the Kp in series [2] (setting [4]) stood at 0.29; in series [2] (setting [5]), 0.05.

Values taken from patent US12448388B2, “PRMT5 inhibitors and uses thereof” (Gilead Sciences, Inc., priority 2023, dated 2025).
